Reference: patent US20220324835A1 (Nurix Therapeutics, Inc., priority 2018, published 2022)

How the values were obtained:
[1] = system: T-cell; test: IL-2 secretion from T-cells stimulated with anti-CD3 antibody alone (Biological Example 2); type: cell-based, human; settings: T-cell, fold change over baseline, primary human total T-cells, read-out: IL-2 secretion Anti-CD3 stimulation; for fold induction at 1 µM: 1 μM Cbl-b inhibitor; for fold induction at 8 µM: 8 μM Cbl-b inhibitor
[2] = biological target: Cbl-b (residues 36-427) (Homo sapiens, UniProt Q13191); test: Cbl-b binding assay (SPR, Biacore T200); settings: 20° C., 1:1 binding model
Cbl-b (residues 36-427), sequence (Q13191 36-427): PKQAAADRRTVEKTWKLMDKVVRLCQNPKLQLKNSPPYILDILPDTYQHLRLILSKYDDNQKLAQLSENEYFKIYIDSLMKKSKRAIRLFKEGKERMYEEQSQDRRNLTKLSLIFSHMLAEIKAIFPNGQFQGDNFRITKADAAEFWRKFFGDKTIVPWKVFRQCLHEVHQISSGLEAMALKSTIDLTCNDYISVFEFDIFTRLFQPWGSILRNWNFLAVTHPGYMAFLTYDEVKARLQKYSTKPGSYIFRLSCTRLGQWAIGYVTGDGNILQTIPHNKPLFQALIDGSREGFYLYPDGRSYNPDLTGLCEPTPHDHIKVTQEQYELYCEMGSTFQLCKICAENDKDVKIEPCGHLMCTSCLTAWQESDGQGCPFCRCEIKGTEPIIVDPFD
Summary of the method: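 Affinities derived from global 1:1 steady-state or kinetic fits of double-referenced, solvent-corrected SPR data, 20 °C, NeutrAvidin-capture chip. Compound series (top 100 or 50 μM, 8–10 points) injected 50 s, 90–180 s dissociation. Asterisked values used 50 mM instead of 100 mM NaCl and 30 nM Src kinase.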

[3] = system: T-cell; test: IL-2 secretion from T-cells co-stimulated with anti-CD3 and anti-CD28 antibody (Biological Example 2); type: cell-based, human; settings: Homo sapiens, T-cell, fold change over baseline, primary human total T-cells, read-out: IL-2 secretion Anti-CD3/Anti-CD28 stimulation; for fold induction at 0.3 µM: 0.3 μM Cbl-b inhibitor; for fold induction at 1 µM: 1 μM Cbl-b inhibitor; for fold induction at 4 µM: 4 μM Cbl-b inhibitor
Summary of the method: (§1)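 No assay protocol given; T-cells stimulated with anti-CD3 alone or anti-CD3 plus anti-CD28, with or without Cbl-b inhibitor. Activation read as IL-2 secretion or CD25 surface staining, expressed as fold over baseline from uninhibited cells […].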

[4] = system: T-cell; test: CD25 cell surface staining on T-cells co-stimulated with anti-CD3 and anti-CD28 antibody (Biological Example 2); type: cell-based, human; settings: Homo sapiens, T-cell, fold change over baseline, primary human total T-cells, read-out: CD25 staining Anti-CD3/Anti-CD28 stimulation; for fold induction at 0.3 µM: 0.3 μM Cbl-b inhibitor; for fold induction at 1 µM: 1 μM Cbl-b inhibitor; for fold induction at 4 µM: 4 μM Cbl-b inhibitor
Summary of the method: as §1

Row | SMILES | fold induction at 1 µM [1] | fold induction at 8 µM [1] | Kd [2] [nM] | fold induction at 0.3 µM [3] | fold induction at 1 µM [3] | fold induction at 4 µM [3] | fold induction at 0.3 µM [4] | fold induction at 1 µM [4] | fold induction at 4 µM [4]
1 | CNS(=O)(=O)c1cc(C(=O)Nc2cccc([C@H](C)Cc3nncn3C)c2)nc(C(F)(F)F)c1 [Compound 201, (R)-N-(3-(1-(4-methyl-4H-1,2,4-triazol-3-yl)propan-2-yl)phenyl)-4-(N-methylsulfamoyl)-6-(trifluoromethyl)picolinamide] | 0.151 to 0.2 | > 0.201 | 301 to 1000 | 1.01 to 2.5 | 1.01 to 2.5 | < 1 | 1.01 to 1.3 | 1.01 to 1.3 | 1.01 to 1.3
2 | C[C@H](Cc1nncn1C)c1cccc(NC(=O)c2cc(O[C@H]3CC[C@@H](O)C3)ccn2)c1 [Compound 206, 4-((1S,3R)-3-hydroxycyclopentyloxy)-N-(3-((R)-1-(4-methyl-4H-1,2,4-triazol-3-yl)propan-2-yl)phenyl)picolinamide] | < 0.05 | 0.051 to 0.1 | 301 to 1000 | 1.01 to 2.5 | 1.01 to 2.5 | 2.51 to 5 | 1.01 to 1.3 | 1.01 to 1.3 | 1.01 to 1.3
3 | Cc1ccc(C(=O)Nc2cccc([C@H](C)Cc3nnc[nH]3)c2)nc1C1CC1 [Compound 212, (R)-N-(3-(1-(4H-1,2,4-triazol-3-yl)propan-2-yl)phenyl)-6-cyclopropyl-5-methylpicolinamide] | < 0.05 | < 0.05 | 1000 to 3000 | 1.01 to 2.5 | 1.01 to 2.5 | 1.01 to 2.5 | 1.51 to 1.75 | 1.51 to 1.75 | > 1.76
4 | Cc1conc1C[C@@H](C)c1cccc(NC(=O)c2ccnc(C(F)(F)F)n2)c1 [Compound 213a, (R)-N-(3-(1-(4-methylisoxazol-3-yl)propan-2-yl)phenyl)-2-(trifluoromethyl)pyrimidine-4-carboxamide] | 0.051 to 0.1 | 0.101 to 0.15 | 100 to 300 | 1.01 to 2.5 | 1.01 to 2.5 | 2.51 to 5 | 1.01 to 1.3 | 1.01 to 1.3 | 1.01 to 1.3
5 | C[C@H](Cc1nncn1C)c1cccc(NC(=O)c2cc(C(=O)N3CC[C@](C)(O)C3)ccn2)c1 [Compound 222, 4-((S)-3-hydroxy-3-methylpyrrolidine-1-carbonyl)-N-(3-((R)-1-(4-methyl-4H-1,2,4-triazol-3-yl)propan-2-yl)phenyl)picolinamide] | < 0.05 | < 0.05 | 1000 to 3000 | < 1 | < 1 | < 1 | 1.51 to 1.75 | 1.31 to 1.5 | 1.51 to 1.75
6 | C[C@H](Cc1nncn1C)c1cccc(NC(=O)c2cc(C(=O)N3C[C@@H](O)C[C@H]3C)ccn2)c1 [Compound 224, 4-((2R,4S)-4-hydroxy-2-methylpyrrolidine-1-carbonyl)-N-(3-((R)-1-(4-methyl-4H-1,2,4-triazol-3-yl)propan-2-yl)phenyl)picolinamide] | 0.101 to 0.15 | 0.101 to 0.15 | 301 to 1000 | < 1 | < 1 | < 1 | 1.01 to 1.3 | 1.01 to 1.3 | 1.51 to 1.75
7 | C[C@H](Cc1nncn1C)c1cccc(NC(=O)c2cc(C(=O)N3C[C@@H](O)[C@H](F)C3)ccn2)c1 [Compound 240, 4-((3R,4R)-3-fluoro-4-hydroxypyrrolidine-1-carbonyl)-N-(3-((K)-1-(4-methyl-4H-1,2,4-triazol-3-yl)propan-2-yl)phenyl)picolinamide] | 0.151 to 0.2 | > 0.201 | 100 to 300 | < 1 | 1.01 to 2.5 | 2.51 to 5 | < 1 | 1.01 to 1.3 | 1.31 to 1.5
8 | C[C@H](Cc1nncn1C)c1cccc(NC(=O)c2cc(C(=O)N3CC(O)C(F)(F)C3)ccn2)c1 (stereo partly drawn) [Compound 243, 4-(3,3-difluoro-4-hydroxypyrrolidine-1-carbonyl)-N-[3-[(2R)-1-(4-methyl-4H-1,2,4-triazol-3-yl)propan-2-yl]phenyl]pyridine-2-carboxamide] | > 0.201 | > 0.201 | > 10000 | < 1 | < 1 | 2.51 to 5 | < 1 | < 1 | 1.31 to 1.5
9 | CCn1cnnc1C[C@@H](C)c1cccc(NC(=O)c2cc(C(=O)N3C[C@@H](O)C[C@H]3C)ccn2)c1 [Compound 251, N-(3-((R)-1-(4-ethyl-4H-1,2,4-triazol-3-yl)propan-2-yl)phenyl)-4-((2R,4S)-4-hydroxy-2-methylpyrrolidine-1-carbonyl)picolinamide] | 0.151 to 0.2 | 0.151 to 0.2 | 1000 to 3000 | < 1 | < 1 | 1.01 to 2.5 | 1.01 to 1.3 | 1.01 to 1.3 | 1.01 to 1.3
10 | C[C@H](Cc1nncn1C)c1cccc(N2Cc3c(Br)cccc3C2=O)c1 [Compound 256, (R)-4-bromo-2-(3-(1-(4-methyl-4H-1,2,4-triazol-3-yl)propan-2-yl)phenyl)isoindolin-1-one] | > 0.201 | > 0.201 | 100 to 300 | 2.51 to 5 | 5 to 7.5 | > 7.5 | 1.01 to 1.3 | 1.31 to 1.5 | 1.51 to 1.75
11 | C[C@H](Cc1nncn1C)c1cccc(N2Cc3c(ccnc3C3CC3)C2=O)c1 [Compound 257, 4-cyclopropyl-2-[3-[(1R)-1-methyl-2-(4-methyl-1,2,4-triazol-3-yl)ethyl]phenyl]-3H-pyrrolo[3,4-c]pyridin-1-one] | 0.151 to 0.2 | > 0.201 | 301 to 1000 | 1.01 to 2.5 | 1.01 to 2.5 | 1.01 to 2.5 | 1.01 to 1.3 | 1.01 to 1.3 | 1.31 to 1.5
12 | C[C@H](Cc1nncn1C)c1cccc(N2Cc3c(ccnc3C3CCC3)C2=O)c1 [Compound 258, (R)-4-cyclobutyl-2-(3-(1-(4-methyl-4H-1,2,4-triazol-3-yl)propan-2-yl)phenyl)-2,3-dihydropyrrolo[3,4-c]pyridin-1-one] | 0.051 to 0.1 | 0.101 to 0.15 | 3000 to 10000 | 1.01 to 2.5 | 2.51 to 5 | 5 to 7.5 | < 1 | 1.01 to 1.3 | 1.01 to 1.3
13 | C[C@H](Cc1nnc[nH]1)c1cccc(N2Cc3c(cccc3C(F)(F)F)C2=O)c1 [Compound 262, (R)-2-(3-(1-(4H-1,2,4-triazol-3-yl)propan-2-yl)phenyl)-4-(trifluoromethyl)isoindolin-1-one] | < 0.05 | < 0.05 | 301 to 1000 | < 1 | < 1 | 1.01 to 2.5 | 1.01 to 1.3 | 1.31 to 1.5 | 1.31 to 1.5
14 | C[C@H](Cc1nncn1C1CC1)c1cccc(N2Cc3c(cccc3C(F)(F)F)C2=O)c1 [Compound 265, (R)-2-(3-(1-(4-cyclopropyl-4H-1,2,4-triazol-3-yl)propan-2-yl)phenyl)-4-(trifluoromethyl)isoindolin-1-one] | < 0.05 | < 0.05 | 3000 to 10000 | < 1 | 1.01 to 2.5 | 1.01 to 2.5 | 1.01 to 1.3 | 1.01 to 1.3 | 1.01 to 1.3
15 | Cc1[nH]cnc1CC(C)c1cccc(N2Cc3c(cccc3C(F)(F)F)C2=O)c1 (stereo not drawn) [Compound 272, 2-[3-[1-(5-methyl-1H-imidazol-4-yl)propan-2-yl]phenyl]-4-(trifluoromethyl)isoindolin-1-one] | 0.101 to 0.15 | 0.101 to 0.15 | 3000 to 10000 | < 1 | < 1 | < 1 | < 1 | < 1 | 1.01 to 1.3
